Assay results as given in patent US20050049294A1, “Methods of using [3.2.0] heterocyclic compounds and analogs thereof” (priority 2003, published 2005).
Read-outs that look alike come from different tables or passages of the source. Peptide text beside a SMILES is read from it. * marks the point of attachment. Cbz = O=C(OCc1ccccc1)*

Legend:
[1] = test system: LeTx-induced cytotoxicity of RAW264.7 cells; settings: read-out: EC50 concentrations in the LeTx assay; cited from earlier work
Jurkat cells = test: Cytotoxicity against Jurkat cells; format: cell-based, human; settings: Table 5, Jurkat Cells
HL-60 cells = test: Cell growth inhibition (resazurin, 48 hours), HL-60
Excerpt: (§1) The DNA binding agent Mitoxantrone was included as a control, as HL-60/MX2 cells are reported to be resistant to this chemotherapeutic agent (Harker W. G. et al. 1989).

HL-60/MX2 cells = test: cells; settings: for EC50: Homo sapiens, HL60/MX2, read-out: EC50 (nM) HL-60/MX2, Table 17
Excerpt: as §1

[2] = test system: LeTx-induced cytotoxicity of RAW264.7 cells; settings: 1 μM
[3] = target: T1, chymotrypsin-like activity of rabbit muscle 20S proteasomes (Oryctolagus cuniculus, UniProt G1T4Q9); test: Inhibition of chymotrypsin-like activity of purified rabbit muscle 20S proteasome (suc-LLVY-AMC); format: biochemical
T1 sequence (G1T4Q9 1-263): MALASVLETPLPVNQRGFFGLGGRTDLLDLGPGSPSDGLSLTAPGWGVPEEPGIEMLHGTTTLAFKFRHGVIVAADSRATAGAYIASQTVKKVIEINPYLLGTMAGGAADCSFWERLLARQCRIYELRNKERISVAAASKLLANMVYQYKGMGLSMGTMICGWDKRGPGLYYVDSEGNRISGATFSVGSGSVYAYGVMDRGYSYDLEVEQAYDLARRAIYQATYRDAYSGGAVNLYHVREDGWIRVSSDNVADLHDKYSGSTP
Method: This peptide substrate is specific for the chymotrypsin-like enzyme activity of the proteasome.
Omuralide was prepared as a 10 mM stock in DMSO and stored in 5 μL aliquots at −80° C. […] The assay measures the hydrolysis of Suc-LLVY-AMC into Suc-LLVY and AMC. The released coumarin (AMC) was measured fluorometrically by using λex=390 nm and λem=460 nm. The assays were performed in a microtiter plate (Corning 3904), and followed kinetically with measurements every five minutes. The instrument used was a Thermo Lab Systems Fluoroskan, with the incubation chamber set to 37° C. The assays were performed according to the manufacturer's protocol, with the following changes. The proteasome was activated as described with SDS, and held on ice prior to the assay. […] Ten microliters of each dose were added in triplicate to the assay plate, and 190 μL of the activated proteasome was added and mixed. The samples were pre-incubated in the Fluoroskan for 5 minutes at 37° C. Substrate was added and the kinetics of AMC were followed for one hour.

PC-3 cells = test: Cell growth inhibition (resazurin, 48 hours), PC-3; format: cell-based, human; settings: Homo sapiens, PC-3
MDA-MB-231 cells = test: Cell growth inhibition (resazurin, 48 hours), MDA-MB-231; format: cell-based; settings: Homo sapiens, MDA-MB-231
HT-29 cells = test: Cell growth inhibition (resazurin, 48 hours), HT-29; format: cell-based; settings: Homo sapiens, HT-29
NCI-H292 cells = test: Cell growth inhibition (resazurin, 48 hours), NCI-H292; format: cell-based, human; settings: Homo sapiens, NCI-H292
RPMI 8226 cells = test: Cell growth inhibition (resazurin, 48 hours), RPMI 8226
[4] = test system: LeTx-induced cytotoxicity of RAW264.7 cells; test: cells; settings: Mus musculus, RAW264.7, read-out: EC50 (nM), inhibition of RAW 264.7 cell cytotoxicity mediated by anthrax lethal toxin
[5] = test system: NF-κB-mediated luciferase activity in HEK293 NF-κB/Luc cells; test: NF-κB-mediated luciferase reporter gene assay; format: cell-based, human; settings: for luciferase activity upon TNF-α stimulation: pretreatment of NF-κB/Luc 293 cells
Method: (§2) The HEK293 NF-κB/luciferase reporter cell line is a derivative of the human embryonic kidney cell line (ATCC; CRL- 1573) and carries a luciferase reporter gene under the regulation of 5×NF-κB binding sites. […] When performing the luciferase assay, the DMEM basal medium was replaced with phenol-red free DMEM basal medium and the G418 was omitted.
For NF-κB-mediated luciferase assays, HEK293 NF-κB/luciferase cells were seeded at 1.5×10^4 cells/well in 90 μl phenol-red free DMEM complete medium into Corning 3917 white opaque-bottom tissue culture plates. […] This dilution series was further diluted 40× in appropriate culture medium and ten μl aliquots were added to the test wells in triplicate resulting in final test concentrations ranging from 1 μM to 320 pM. […] For Formula II-19, a 127 μM starting dilution was made in 100% DMSO and the final test concentrations ranging from 317 nM to 0.1 nM. […] After 1 hr pretreatment, 10 μl of a 50 ng/ml TNF-α solution, prepared in the phenol-red free DMEM medium was added, and the plates were incubated for an additional 6 hr.
NF-κB inducible luciferase activity was measured at 6 hours.
as §2, with “CRL-1573)” for “CRL- 1573)”
For NF-κB-mediated luciferase assays, HEK293 NF-κB/luciferase cells were seeded at 1.5×10^4 cells/well in 90 μl phenol-red free DMEM complete medium into Corning 3917 white opaque-bottom tissue culture plates. For Formula II-2, Formula II-4 and Formula II-5A, a 400 μM starting dilution was made in 100% DMSO and this dilution was used to generate a 8-point half log dilution series. This dilution series was further diluted 40× in appropriate culture medium and ten μl aliquots were added to the test wells in triplicate resulting in final test concentrations ranging from 1 μM to 320 pM. […] After 1 hr pretreatment, 10 μl of a 50 ng/ml TNF-α solution, prepared in the phenol-red free DMEM medium was added, and the plates were incubated for an additional 6 hr.
The relative luciferase units (RLU) were measured by using a Fusion microplate fluorometer (Packard Bioscience).

U266 cells = test: Cell growth inhibition (resazurin, 48 hours), U266
[6] = target: T2, trypsin-like activity of purified rabbit 20S proteasomes (Oryctolagus cuniculus, UniProt G1SWK8); settings: under the conditions tested
T2 sequence (G1SWK8 1-271): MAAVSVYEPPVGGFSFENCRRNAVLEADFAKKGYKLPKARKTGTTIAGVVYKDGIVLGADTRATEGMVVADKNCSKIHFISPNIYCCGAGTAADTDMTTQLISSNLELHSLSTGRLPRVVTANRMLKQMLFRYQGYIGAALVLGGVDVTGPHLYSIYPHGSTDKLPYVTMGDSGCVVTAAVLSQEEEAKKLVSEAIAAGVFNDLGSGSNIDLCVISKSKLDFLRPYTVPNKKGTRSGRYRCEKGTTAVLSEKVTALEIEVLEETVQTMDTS

[7] = target: T2, trypsin-like activity of purified rabbit 20S proteasomes; test: biochemical
[8] = target: PGPH (caspase-like) activity of rabbit muscle 20S proteasomes (Oryctolagus cuniculus, UniProt A0A5F9DQW2); test: Inhibition of caspase-like (PGPH) activity of 20S proteasome (Z-LLE-AMC); format: biochemical; settings: Table 3; mean EC50; purified rabbit 20S proteasomes
Method: A commercially available fluorogenic substrate specific for the PGPH activity was used instead of the chymotrypsin substrate supplied in the proteasome assay kit described above.
The substrate Z-LLE-AMC was prepared as a 20 mM stock solution in DMSO, stored at −20° C. The source of the proteasomes was the commercially available kit from Calbiochem (Cat. #539158). As with the chymotrypsin substrate, the proteasome can cleave Z-LLE-AMC into Z-LLE and free AMC. The activity can then be determined by measuring the fluorescence of the released AMC (λex=390 nm and λem=460 nm). The proteasomes were activated with SDS and held on ice as per manufacturer's recommendation. […] The series was diluted 20-fold with assay buffer and preincubated with the proteasomes as described for the chymotrypsin-like activity. After addition of substrate, the samples were incubated at 37° C., and release of the fluorescent AMC was monitored in a fluorimeter. All data were collected and plotted as the mean of triplicate points. […] As before, the model chosen was a sigmoidal dose-response, with a variable slope.

OVCAR-3 cells = test: Cell growth inhibition (resazurin, 48 hours), OVCAR-3; format: cell-based, human; settings: Homo sapiens, OVCAR-3, Table 13; OVCAR-3
MES-SA cells = test: Cell growth inhibition (resazurin, 48 hours), MES-SA; settings: Homo sapiens, MES-SA, read-out: EC50 (nM) MES-SA, Table 16
MES-SA/Dx5 cells = test: cells; settings: Homo sapiens, MES-SA/Dx5, read-out: EC50 (nM) MES-SA/Dx5, Table 16
B16-F10 cells = test: Cell growth inhibition (resazurin, 48 hours), B16-F10; format: cell-based, mouse; settings: Mus musculus, B16-F10, Table 13; B16-F10
[9] = Homo sapiens, HL-60, read-out: EC50 (nM) HL-60, Table 17
[10] = Homo sapiens, RPMI-8226, Table 13, RPMI 8226
[11] = Homo sapiens, U-266, Table 13, U266
[12] = Table 3, mean EC50, purified rabbit 20S proteasomes, read-out: EC50 Values, Chymotrypsin-like
[13] = representative experiment, Example 44 (FIG. 46, 47), read-out: EC50, chymotrypsin-like activity of the proteasome

Chain of PGPH (caspase-like) activity of rabbit muscle 20S proteasomes (A0A5F9DQW2 1-212): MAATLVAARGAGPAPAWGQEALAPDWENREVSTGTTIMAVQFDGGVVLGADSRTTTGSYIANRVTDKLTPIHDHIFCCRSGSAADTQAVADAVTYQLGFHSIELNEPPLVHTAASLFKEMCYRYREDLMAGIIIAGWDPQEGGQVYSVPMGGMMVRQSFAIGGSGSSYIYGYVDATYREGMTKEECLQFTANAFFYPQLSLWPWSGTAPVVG

In the case of CC(C)C[C@@H](C=O)NC(=O)[C@H](CC(C)C)NC(=O)[C@H](CC(C)C)NC(=O)OCc1ccccc1 [MG132] (Cbz-Leu-Leu-Leu-aldehyde), the EC50 [1] is given as 3000 nM.

For O=C1c2c(O)ccc(O)c2C(=O)c2c(NCCNCCO)ccc(NCCNCCO)c21 [Mitoxantrone, reference compound], the EC50 (Jurkat cells; Homo sapiens, read-out: EC50) was 50 nM, the “% max cell kill” value (Jurkat cells) was 99% and the EC50 (HL-60 cells; [9]) was 42 nM. It also gave an EC50 (HL-60 cells; read-out: EC50 (nM) HL-60, Table 17) of 40 nM, an EC50 (HL-60/MX2 cells) of 1340 nM and a Fold change (HL-60/MX2 cells; Table 17, ratio of EC50 values (HL-60/MX2:HL-60)) of 30.6 fold.

For CC(C)[C@H](O)[C@@]12NC(=O)[C@H](C)[C@@H]1OC2=O [Omuralide, reference compound], the “viability, compound + LeTx” value [2] was 37%, the EC50 ([3]; Calbiochem 20S Proteasome Kit, Example 21, read-out: average EC50 in the two assays, chymotrypsin-like activity) was 52 nM and the EC50 ([3]; first experiment, Example 21, read-out: EC50, average value in the 20S proteasome assay (FIG. 27)) was 49 nM.

In the case of C[C@@]12OC(=O)[C@]1([C@@H](O)[C@H]1CCC[C@H]3O[C@@H]13)NC(=O)[C@@H]2CCCl [Formula II-5A], the EC50 (PC-3 cells; Table 13, read-out: EC50) is reported as 97 nM, the EC50 (MDA-MB-231 cells; Table 13, read-out: EC50) is reported as 66 nM and the EC50 (HT-29 cells; Table 13, read-out: EC50) is reported as 85 nM. It also gave an EC50 (NCI-H292 cells; Table 13, read-out: EC50) of 90 nM, an EC50 (RPMI 8226 cells; [10]) of 36 nM and an EC50 (RPMI 8226 cells; Homo sapiens, RPMI-8226, read-out: RPMI 8226 EC50 (nM), Table 15, mean EC50) of 33 nM. It also gave an EC50 (RPMI 8226 cells; Table 13, RPMI 8226) of 29 nM, an EC50 [4] of 3 nM and an EC50 ([5]; Homo sapiens, HEK293, representative experiment, Example 43 (FIG. 44, 45), read-out: calculated EC50 to inhibit NF-κB inducible luciferase activity) of 30 nM. For the same compound, the “luciferase activity upon TNF-α stimulation” value [5] was “dose-dependent decrease”, the EC50 (U266 cells; [11]) was 10 nM and the EC50 (U266 cells; Homo sapiens, U-266, read-out: U266 EC50 (nM), Table 15, mean EC50) was 10 nM. For the same compound, the EC50 (U266 cells; Table 13, U266) was 9 nM, the “inhibit the trypsin-like activity of the 20S proteasome” value (shortened to “inhibit the trypsin-like activity”) [6] was “able to inhibit” and the EC50 [3, 12] was 6.5 nM. The EC50 [3, 13] was 6 nM, the EC50 [7] was 89 nM and the EC50 [8] was 487 nM.

Work on CC[C@H]1C(=O)N[C@@]2([C@@H](O)[C@@H]3C=CCCC3)C(=O)O[C@@]12C [Formula II-17] yielded an EC50 (PC-3 cells) greater than 20000 nM, an EC50 (MDA-MB-231 cells) of 5900 ± 601 nM and an EC50 (HT-29 cells) greater than 20000 nM. It also gave an EC50 (NCI-H292 cells; NCI-H292, Table 13) greater than 20000 nM, an EC50 (HL-60 cells; [9]) greater than 20000 nM and an EC50 (OVCAR-3 cells) greater than 20000 nM. For the same compound, the EC50 [4] was 42 nM, the “luciferase activity upon TNF-α stimulation” value [5] was “dose-dependent decrease” and the EC50 (HL-60/MX2 cells) was greater than 20000 nM. The “inhibit the trypsin-like activity” value [6] was “able to inhibit”, the EC50 (MES-SA cells) was 9230 nM and the EC50 [7] was 588 nM. The EC50 (MES-SA/Dx5 cells) was 9450 nM.

In the case of CC(=O)N[C@@H](CSC(=O)[C@]1([C@@H](O)C(C)C)NC(=O)[C@H](C)[C@@H]1O)C(=O)O [Lactacystin], the EC50 [1] is given as 3000 nM.

CC[C@H]1C(=O)N[C@@]2([C@@H](O)C3CCCCC3)C(=O)O[C@@]12C [Formula II-3] gave an EC50 (PC-3 cells) greater than 20000 nM, an EC50 (MDA-MB-231 cells) greater than 20000 nM and an EC50 (HT-29 cells) greater than 20000 nM. For the same compound, the EC50 (B16-F10 cells) was greater than 20000 nM, the EC50 (NCI-H292 cells; NCI-H292, Table 13) was greater than 20000 nM and the EC50 (HL-60 cells; [9]) was greater than 20000 nM. For the same compound, the EC50 (RPMI 8226 cells; [10]) was greater than 20000 nM, the EC50 (OVCAR-3 cells) was greater than 20000 nM and the EC50 [4] was greater than 330 nM. For the same compound, the EC50 (HL-60/MX2 cells) was greater than 20000 nM, the EC50 (U266 cells; [11]) was greater than 20000 nM and the “inhibit the trypsin-like activity” value [6] was “able to inhibit”. The EC50 [3, 12] was 927 nM, the EC50 [3, 13] was 890 nM and the EC50 (MES-SA cells) was greater than 20000 nM. It also gave an EC50 [7] of 6600 nM, an EC50 (MES-SA/Dx5 cells) greater than 20000 nM and an EC50 [8] greater than 20000 nM.
